# Active and inactive are the calls of the source. No cut-off for these calls is given here.
# Experiments:
# P388 [1] = experiment: Cytotoxicity against mouse P388 cells; type: functional, cell-based; conditions: Mus musculus, P388; read-out: ED50 (the source's name)
# P388 [2] = experiment: Cytotoxicity against mouse P388 cells at 0.05 ug/ml; type: functional
# [3] = molecular target: Protein kinase C zeta type (Homo sapiens, UniProt Q05513); experiment: Antagonist activity at protein kinase C zeta; type: functional
# EL4 = experiment: Cytotoxicity against […] cells; type: functional, cell-based; conditions: Mus musculus
# [4] = Cytotoxicity against human KB16 cells; type: functional, cell-based
# [5] = molecular target: Protein kinase C gamma type (Homo sapiens, UniProt P05129); experiment: Antagonist activity at protein kinase C gamma; type: functional
# [6] = molecular target: Protein kinase C epsilon type (Homo sapiens, UniProt Q02156); experiment: Antagonist activity at protein kinase C epsilon; type: functional
# MIA PaCa-2 = experiment: Cytotoxicity against human MIA-PaCa2 cells
# SF-268 [7] = experiment: Cytotoxicity against human SF268 cells; type: functional, cell-based
# MCF7 = experiment: Cytotoxicity against human MCF7 cells; type: functional, cell-based; conditions: Homo sapiens, MCF7
# HeLa = experiment: Cytotoxicity against human HeLa cells; type: functional, cell-based
# SF-268 [8] = experiment: Cytotoxicity against human SF268 cells at 30 uM; type: functional, cell-based
# NCI-H460 = experiment: Cytotoxicity against human NCI-H460 cells; type: functional, cell-based; conditions: Homo sapiens, NCI-H460
# K562 = experiment: Cytotoxicity against human K562 cells; type: functional, cell-based
# [9] = Cytotoxicity against human Fem-X cells; type: functional, cell-based
# PBMC [10] = experiment: Cytotoxicity against human PHA-activated PBMC cells; type: cell-based
# PBMC [11] = experiment: Cytotoxicity against human PBMC cells; type: cell-based
# T47D = experiment: Cytotoxicity against human T47D cells; type: functional
# ACHN = experiment: Cytotoxicity against human ACHN cells; type: functional, cell-based
# DU-145 = experiment: Cytotoxicity against human DU145 cells; type: functional, cell-based; conditions: Homo sapiens, DU-145; read-out: GI50
# NCI-H322M = experiment: Cytotoxicity against human NCI-H322M cells; type: functional
# UO-31 = experiment: Cytotoxicity against human UO31 cells; type: functional
# EKVX = experiment: Cytotoxicity against human EKVX cells; type: functional
# TK-10 = experiment: Cytotoxicity against human TK10 cells; type: functional
# OVCAR-3 = experiment: Cytotoxicity against human OVCAR-3 cells; type: functional, cell-based
# SK-OV-3 = experiment: Cytotoxicity against human SK-OV-3 cells; type: functional, cell-based
# MOLT-4 = experiment: Cytotoxicity against human MOLT4 cells
# IGROV-1 = experiment: Cytotoxicity against human IGROV1 cells; type: functional
# OVCAR-4 = experiment: Cytotoxicity against human OVCAR4 cells; type: functional, cell-based
# [12] = Cytotoxicity against human K652 cells; type: functional
# [13] = Cytotoxicity against human RPMI8266 cells; type: functional
# LOX IMVI = experiment: Cytotoxicity against human LOXI MVI cells; type: functional, cell-based
# HCT-15 = experiment: Cytotoxicity against human HCT15 cells; type: functional, cell-based
# CAKI-1 = experiment: Cytotoxicity against human CAKI1 cells; type: functional
# SK-MEL-5 = experiment: Cytotoxicity against human SK-MEL-5 cells; type: functional
# PC-3 = experiment: Cytotoxicity against human PC3 cells; type: functional, cell-based; conditions: Homo sapiens, PC-3
# SW-620 = experiment: Cytotoxicity against human SW620 cells; type: functional
# HCC 2998 = experiment: Cytotoxicity against human HCC2998 cells; type: functional, cell-based
# COLO 205 = experiment: Cytotoxicity against human COLO205 cells
# BT-549 = experiment: Cytotoxicity against human BT-549 cells; type: functional
# SN12C = experiment: Cytotoxicity against human SN12C cells; type: functional
# OVCAR-5 = experiment: Cytotoxicity against human OVCAR5 cells; type: functional, cell-based
# [14] = Cytotoxicity against human CFUGM; type: functional; conditions: CFU-GM
# UACC-62 = experiment: Cytotoxicity against human UACC62 cells; type: functional
# KM12 = experiment: Cytotoxicity against human KM12 cells; type: functional, cell-based
# HOP-62 = experiment: Cytotoxicity against human HOP62 cells; type: functional
# [15] = Cytotoxicity against human CCRF-GEM cells; type: functional
# SK-MEL-2 = experiment: Cytotoxicity against human SK-MEL-2 cells; type: functional
# SNB-19 = experiment: Cytotoxicity against human SNB19 cells; type: functional
# HCT-116 = experiment: Cytotoxicity against human HCT116 cells; type: functional, cell-based
# A549 = experiment: Cytotoxicity against human A549 cells; type: functional, cell-based; conditions: Homo sapiens, A549
# [16] = Cytotoxicity against human MCF7/ADR-RES cells; type: functional; conditions: NCI/ADR-RES
# HT-29 = experiment: Cytotoxicity against human HT29 cells; type: functional
# [17] = Cytotoxicity against human HB60 cells; type: functional
# SK-MEL-28 = experiment: Cytotoxicity against human SK-MEL-28 cells; type: functional
# [18] = Cytotoxicity against mouse Ehrlich Ascites carcinoma by […] assay; type: functional
# HOP-92 = experiment: Cytotoxicity against human HOP92 cells; type: functional
# UACC-257 = experiment: Cytotoxicity against human UACC257 cells; type: functional
# A498 = experiment: Cytotoxicity against human A498 cells; type: functional
# U-251 = experiment: Cytotoxicity against human U251 cells; type: functional, cell-based
# 786-0 = experiment: Cytotoxicity against human renal 7860 cells by soft agar assay; type: functional
# NCI-H23 = experiment: Cytotoxicity against human NCI-H23 cells; type: functional, cell-based
# MDA-N = experiment: Cytotoxicity against human MDA-N cells; type: functional
# [19] = Cytotoxicity against human RES MDA-MB-231/ATCC cells; type: functional
# P388 [20] = experiment: Cytotoxicity against mouse P388 cells at 0.5 ug/mL; type: functional
# HCT-8 = experiment: Cytotoxicity against human HCT8 cells at 10 ug/mL; type: functional
# Chain of Protein kinase C epsilon type (Q02156 whole entry): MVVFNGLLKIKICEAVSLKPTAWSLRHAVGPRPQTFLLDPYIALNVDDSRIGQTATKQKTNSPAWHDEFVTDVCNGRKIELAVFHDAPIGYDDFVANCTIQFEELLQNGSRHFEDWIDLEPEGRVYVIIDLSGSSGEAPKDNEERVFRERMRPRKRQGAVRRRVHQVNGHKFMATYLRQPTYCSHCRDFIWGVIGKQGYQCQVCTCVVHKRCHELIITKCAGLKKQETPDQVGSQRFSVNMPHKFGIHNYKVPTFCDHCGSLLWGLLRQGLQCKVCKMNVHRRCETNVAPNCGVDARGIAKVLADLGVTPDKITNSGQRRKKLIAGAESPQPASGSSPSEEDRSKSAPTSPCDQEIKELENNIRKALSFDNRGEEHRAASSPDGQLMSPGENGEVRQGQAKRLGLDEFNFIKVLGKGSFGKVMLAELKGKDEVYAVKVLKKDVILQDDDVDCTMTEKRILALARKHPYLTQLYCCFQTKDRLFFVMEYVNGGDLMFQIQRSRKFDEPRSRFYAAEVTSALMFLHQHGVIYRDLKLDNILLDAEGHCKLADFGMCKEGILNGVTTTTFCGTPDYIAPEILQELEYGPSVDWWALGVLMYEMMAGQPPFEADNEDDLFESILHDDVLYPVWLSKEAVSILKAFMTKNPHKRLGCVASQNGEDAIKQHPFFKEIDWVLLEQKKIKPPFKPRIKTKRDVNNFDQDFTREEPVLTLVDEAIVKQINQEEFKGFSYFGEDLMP
# Chain of Protein kinase C zeta type (Q05513 whole entry): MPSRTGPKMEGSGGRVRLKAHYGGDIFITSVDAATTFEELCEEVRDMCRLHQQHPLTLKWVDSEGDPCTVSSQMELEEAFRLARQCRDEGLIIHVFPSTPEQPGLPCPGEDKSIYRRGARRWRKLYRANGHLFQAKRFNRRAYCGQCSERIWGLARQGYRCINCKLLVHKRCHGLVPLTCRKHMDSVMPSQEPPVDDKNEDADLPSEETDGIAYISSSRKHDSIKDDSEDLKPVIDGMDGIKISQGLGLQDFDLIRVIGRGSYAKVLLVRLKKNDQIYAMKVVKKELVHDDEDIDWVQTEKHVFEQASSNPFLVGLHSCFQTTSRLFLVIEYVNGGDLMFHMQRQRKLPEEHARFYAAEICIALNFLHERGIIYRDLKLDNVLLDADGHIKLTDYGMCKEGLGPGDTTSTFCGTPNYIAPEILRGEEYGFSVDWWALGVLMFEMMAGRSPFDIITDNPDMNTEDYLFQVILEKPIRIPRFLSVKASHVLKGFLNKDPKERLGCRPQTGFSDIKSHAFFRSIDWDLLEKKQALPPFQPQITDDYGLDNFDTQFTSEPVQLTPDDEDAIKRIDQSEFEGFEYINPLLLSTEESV
structure (smiles),measurement,setting,value
CCCCCCCCCCCCCCCC[C@@]1(OC)C=C[C@@H](CC(=O)OC)OO1 [CHONDRILLIN],EC50,P388 [1],> 10 µg/mL
same,inhibition at 0.05 µg/mL,P388 [2],50%
same,IC50,[3],104 µM
same,IC50,EL4,0.4 µg/mL
same,IC50,[4],0.74 µg/mL
same,IC50,[5],> 364 µM
same,IC50,[6],72.7 µM
CC(=C/C(=O)O)/C=C/C=C(C)/C=C/[C@@H]1C=C2C(C)(C)CCC[C@]2(C)OO1,IC50,MIA PaCa-2,13.9 µg/mL
same,IC50,SF-268 [7]; sf-268,Not Active
same,IC50,MCF7,21.9 µg/mL
same,IC50,HeLa,19.8 µg/mL
same,Activity,SF-268 [8],inactive
same,IC50,NCI-H460,21 µg/mL
C=C1C(=O)O[C@H]2C1C[C@@H](OC(C)=O)[C@@](C)(O)[C@@]13C=C[C@@](C)(OO1)[C@H]23 (some centres undefined) [APRESSIN],IC50,K562,4.44 µg/mL
same,IC50,[9],5.27 µg/mL
same,IC50,HeLa,7.36 µg/mL
same,IC50,PBMC [10],8.78 µg/mL
same,IC50,PBMC [11],15.9 µg/mL
CC(=C/C(=O)O)/C=C/C=C(\C)[C@@H]1C=C2C(C)(C)CCC[C@]2(C)OO1,IC50,MIA PaCa-2,1.7 µg/mL
same,IC50,"SF-268 [7]; Homo sapiens, SF-268, read-out: IC50",3.5 µg/mL
same,IC50,MCF7,2.7 µg/mL
same,IC50,HeLa,2 µg/mL
same,IC50,NCI-H460,2.1 µg/mL
C[C@H]1[C@H](O[C@H]2O[C@@H]3O[C@]4(C)CC[C@H]5[C@H](C)CC[C@@H]([C@H]2C)[C@@]35OO4)O[C@@H]2O[C@]3(C)CC[C@H]4[C@H](C)CC[C@@H]1[C@@]24OO3,GI50,T47D,1.2 µg/mL
same,GI50,ACHN,3.5 µg/mL
same,GI50,DU-145,> 25 µg/mL
same,GI50,NCI-H322M,> 25 µM
same,GI50,UO-31,1.7 µg/mL
same,GI50,EKVX,2160 nM
same,GI50,TK-10,1.7 µg/mL
same,GI50,OVCAR-3,8.2 µg/mL
same,GI50,SK-OV-3,> 25 µg/mL
same,GI50,MOLT-4,2370 nM
same,GI50,IGROV-1,> 25 µg/mL
same,GI50,OVCAR-4,8.6 µg/mL
same,GI50,[12],1040 nM
same,GI50,[13],660 nM
same,GI50,LOX IMVI,1 µg/mL
same,GI50,HCT-15,740 nM
same,GI50,CAKI-1,> 25 µg/mL
same,GI50,SK-MEL-5,> 3.6 µg/mL
same,GI50,PC-3,0.19 µg/mL
same,GI50,SW-620,1160 nM
same,GI50,HCC 2998,> 25 µM
same,GI50,COLO 205,1170 nM
same,GI50,BT-549,1.3 µg/mL
same,GI50,SN12C,> 16.8 µg/mL
same,GI50,OVCAR-5,> 25 µg/mL
same,IC50,[14],52.5 µM
same,GI50,UACC-62,2 µg/mL
same,GI50,KM12,880 nM
same,GI50,HOP-62,> 25 µM
same,GI50,[15],7.51 µM
same,GI50,SK-MEL-2,16.9 µg/mL
same,GI50,SNB-19,> 25 µM
same,GI50,HCT-116,710 nM
same,GI50,MCF7; read-out: GI50,1.51 µg/mL
same,GI50,A549,18.7 µM
same,GI50,[16],1.45 µg/mL
same,GI50,HT-29,1320 nM
same,GI50,[17],610 nM
same,GI50,SK-MEL-28,> 25 µg/mL
same,IC50,[18],31.2 µM
same,GI50,HOP-92,3.66 µM
same,GI50,UACC-257,> 25 µg/mL
same,GI50,A498,> 25 µg/mL
same,GI50,U-251,> 25 µM
same,GI50,786-0,22 µg/mL
same,GI50,NCI-H23,1150 nM
same,GI50,MDA-N,3.68 µg/mL
same,GI50,NCI-H460; read-out: GI50,> 25 µM
same,GI50,[19],> 25 µg/mL
CCCCCCCCCCCCCCCC[C@]1(C)C[C@](C)(CC(=O)O)OO1,inhibition at 0.5 µg/mL,P388 [20],90%
same,inhibition at 10 µg/mL,HCT-8,90%

# Reference: ChEMBL document CHEMBL1149799, “Bioactive peroxides as potential therapeutic agents” (Eur J Med Chem, 2008)
